Measured values as given in a melting point compilation (Tetko et al.; mined from patent text by program, amines drawn as free bases though some values may be those of a salt).

Structure (SMILES) | melting point [°C]
O=C(NC(Cc1ccc(OCc2ccccc2)cc1)C(=O)O)c1cc2ccc(-c3ccc(Cl)cc3)cc2[nH]1 (stereo unspecified) | 202 to 204
COCCNC(=O)c1cccc(-c2ccc3c(c2)C(c2cc(Cl)ccc2Cl)CC3)c1 (stereo unspecified) | 116
Clc1ccc(CC2(n3cncn3)CC2)cc1 | 67 to 68
CCCCCCCCCCCCCCCCCC(=O)NC(C)Cc1cccc(C(F)(F)F)c1 (stereo unspecified) | 74 to 76
CC1(C)CC(=O)N(CCOC(OCCN2C(=O)CC(C)(C)CC2=O)(C(=O)c2ccccc2)c2ccccc2)C(=O)C1 | 130
Clc1ccc(C2=CCN(CCCCn3cncn3)CC2)cc1 | 101 to 103
O=C(Nc1nc(-c2ccco2)c(-c2ccncc2)s1)c1ccnc(CN2CCC(O)CC2)c1 | 203 to 208
CC(OC(=O)C(F)(F)F)C1CCC2C3CC=C4CC(NC(=O)C(F)(F)F)CCC4(C)C3CCC12C (stereo unspecified) | 140
C#CC1(OC(=O)c2ccccc2)C(COC(=O)c2ccc(Cl)cc2)OC(n2ccc(=O)[nH]c2=O)C1OC(=O)c1ccccc1 (stereo unspecified) | 158 to 160
CCCCCCCCCCCCCCCCCCOc1ccc(C(=O)C(=O)N(CC(=O)O)CC(=O)O)cc1 | 130 to 132
Cc1cc(C#N)c(=O)[nH]c1-c1ccccc1 | 250 to 257
CCCCC[C@H]1CC[C@H](c2ccc(C#C[Si](C)(C)C)nn2)CC1 | 118 to 119
CCOc1ccc(-c2ccc(OC(CC)CCN3CCN(c4cncs4)CC3)cc2)cc1 (stereo unspecified) | 149 to 150
COc1cc(CBr)cc2c(Br)ccc(OC(C)C)c12 | 126
CC1CCCCN1CCCNC(=O)c1ccccc1C(c1ccc(O)cc1)c1ccc(O)cc1 (stereo unspecified) | 118 to 120
O=C(CNC(=O)OC(c1ccccc1)c1ccccc1)Oc1c(Cl)c(Cl)c(Cl)c(Cl)c1Cl | 171 to 172
CC(O)c1ccc(-c2ccc(C(F)(F)F)cc2)cc1 (stereo unspecified) | 116 to 117
Nc1nc2c(s1)CCN(CC=Cc1ccc(OCc3ccccc3)cc1)CC2 | 135 to 140
CN(c1ncccc1[N+](=O)[O-])C1CCN(Cc2ccccc2)CC1 | 92 to 95
CN1CCC(Oc2c(F)c(F)c(F)c(F)c2F)(c2ccc(C(F)(F)F)cc2)CC1 | 45 to 48
CC(C)(C)c1cc(-c2nn(CC#N)c3ncccc23)cc(C(C)(C)C)c1O | 141 to 143
Cn1cc(C2=C(c3c4n(c5ccccc35)CCN(C(=O)Oc3ccccc3)C4)C(=O)NC2=O)c2ccccc21 | 160 to 165
O=C(NC(Cc1ccccc1)C(=O)O)c1ccc2cc(OCc3ccccc3)ccc2c1 (stereo unspecified) | 207
O=C(NNC(=O)c1occ(-c2ccccc2)c1-c1ccccc1)c1ccoc1 | 180 to 183
Cc1ccc(CCN2CCN(c3noc4ccccc34)CC2)c2c1C(C)(C)CCN2 | 135
CC(C)Oc1ccccc1C=C(C=O)C(C=O)=Cc1ccccc1OC(C)C | 109 to 110
c1c[nH]c(C(c2ccc[nH]2)C23CC4CC(CC(C4)C2)C3)c1 | 168 to 169
CNC(=O)c1nc2ccc3c(c2c(-c2ccc4c(c2)OCO4)c1C)OCO3 | 141 to 146
CCc1ncc2n1-c1ccc(Cl)cc1C(c1ccccc1F)=NC2 | 140 to 143

The remaining lines, values ahead:

melting point [°C] | Structure (SMILES)
96 to 98 | CCOc1cc([C@@H](CCN(O)C=O)N2C(=O)c3cccc(NC(C)=O)c3C2=O)ccc1OC
112 to 113 | COC(=O)CCc1nc(-c2cc3ccccc3o2)no1
142 to 145 | COC(=O)C(Cl)=Cc1cc(-n2ncc(C(F)(F)F)c(C)c2=O)c(F)cc1Cl
159 to 161 | CC(C)N1CC(CO)C(c2ccccc2)(c2ccccc2)C1=O (stereo unspecified)
62 to 63 | CCCCCCCCCCCCOC(=O)NS(=O)(=O)Cl
121 to 122 | Cc1cc2nc(Cl)c(Cl)nc2c([N+](=O)[O-])c1Cl
24 to 25 | CCOC(=O)c1ccc(OCCCCl)cc1
209 to 211 | CC(C)=C1C(=O)N(c2ccc(N)cc2)C(=O)/C1=C(\C)c1cc(C)oc1C
144 to 146 | CN(C)C(=O)c1cc(OCc2ccccc2)c2nc(C(F)(F)F)n(C)c2c1
157 to 158 | OCC1CC(F)C(n2cnc3c(Cl)ncnc32)O1 (stereo unspecified)
178 to 180 | Cc1c(CC(=O)O)c2cc(OCc3csc(-c4ccccc4)n3)ccc2n1Cc1csc(-c2ccc(Cl)cc2)n1
190 to 193 | CCOC(=O)n1cc(F)c(N)nc1=O
100 | CCOc1ccc2[nH]c(=O)n(-c3ccc(C(C)C)cc3)c2c1
100 | CCCCCCNC(=O)Oc1ccc2c(c1)CCCN2
156 to 157 | CCCCN(CC)CC1CCCCN1CCNC(=O)N1c2ccccc2C(=O)Nc2cccnc21 (stereo unspecified)
47 to 49 | C=C(C)COc1cc(Cl)ccc1[N+](=O)[O-]
193 to 195 | Cn1cccc1C(=O)C(C#N)C(=O)Nc1ccc([N+](=O)[O-])cc1 (stereo unspecified)
132 to 133 | CC(=O)OCc1cc2cc(OCc3ccccc3)ccc2n1Cc1ccc(C(C)(C)C)cc1
244 to 246 | Cc1cc(C)c2nc(CO)[nH]c2n1
202 to 203 | COC(=O)c1c(-c2ccccc2Cl)c2cc(C)c(C)cc2n(C)c1=O
74 to 77 | Cc1cc(SC2=C(O)CC(CCC(C)C)(C3CCCC3)OC2=O)c(C(C)(C)C)cc1CO (stereo unspecified)

melting point [°C] | Structure (SMILES)
174 | O=c1ccc(N2CCC(CCCO)CC2)n[nH]1
121 to 122 | CCOC(=O)C(NC(C)=O)(C(=O)OCC)[C@@H]1CC(=O)C[C@H]1N=[N+]=[N-] (relative stereo)
138 to 139 | O=C(NCc1ccccc1)OCCc1noc(-c2ccc(CN3CCCCCC3)s2)n1
194 to 197 | Cc1ccc2[nH]c3c(c2c1)C(C(=O)O)CCC3 (stereo unspecified)
164 to 165 | CCOC(=O)c1cnc2cn[nH]c2c1Nc1ccccc1
150 to 152 | O=C1C2=NCCCN2c2ccc(F)cc21
90 to 91 | CC(C)(C)OC(=O)N[C@@H](COc1ccccc1N)C(=O)O
188 to 189 | COC(=O)[C@H](Cc1cc(Cl)c(Oc2ccc3cc(OC)ccc3c2)c(Cl)c1)NC(=O)C(F)(F)F
255 to 257 | CC=CCNc1cc(C(=O)O)cc(S(N)(=O)=O)c1Oc1ccc(NC(C)=O)cc1
106 to 114 | CCC(Oc1cc(Cl)cc(Cl)c1Cl)C(=O)O (stereo unspecified)
236 | NC(=O)CCc1cccc(-c2nc(=O)c3ccccc3s2)n1
85 | CC(C)(C)OC(=O)N[C@@H](CCC(=O)c1ccccc1)C(=O)OC(C)(C)C
122 to 125 | CCOC(=O)c1cc(=O)c(-c2ccc(OCc3ccccc3)c(OCc3ccccc3)c2)co1
98 to 100 | N#Cc1ccccc1F
151 to 152 | CCOC(=O)c1cc2c3ccccc3n(Cc3ccccc3)c2nc1N1CCOCC1
152 to 154 | CS(=O)(=O)Nc1ccc(CCC(=O)O)cc1
87 to 89 | CCOC(C)n1c(C)nc(-c2ccccc2)c1-c1ccccc1 (stereo unspecified)
> 250 | O=C(O)Cn1cc(C(=O)O)c(=O)c2cc(O)ccc(=O)c21
76 to 79 | COC(=O)c1c(CBr)cccc1CBr
183 to 186 | Nc1ccc2oc(=O)c(N)cc2c1
249 to 252 | O=C1c2ccc(Cl)cc2CN2C(=NO)CCC12 (stereo unspecified)
